Experiments:
[1] = test system: AKT (phosphorylated) in DRG explants; experiment: Western blot of phosphorylated AKT in DRG explants; format: cell-based, rat; conditions: CH02 20 μM + BGJ398 2 μM, 4 h, n = 3
Source text: (§1) Figure 6 Phosphoproteomic profiling of the intracellular signaling pathway used by CH02 for augmenting nerve regeneration. (A) GO biological process analysis of proteins corresponding to differentially expressed phosphorylated peptides. Ordinates indicate the enriched GO terms; abscissae represent the gene ratio; size of the dots indicates the number of proteins enriched in this biological process. (B) KEGG pathway analysis of proteins corresponding to differentially expressed phosphorylated peptides. Ordinates indicate the enriched pathway term; abscissae represent the gene ratio; size of the dots indicates number of proteins enriched in this pathway. […] (D-E) Quantification of p-ERK1/2 and p-AKT expression levels. n = 3 independent experiments. Relative protein expression level was quantified after normalization to the corresponding total proteins. […] (G-H) Quantification of p-ERK1/2 and p-AKT expression levels. n = 3 independent experiments. Relative protein expression level was quantified after normalization to the corresponding total proteins. […] The axon is shown in fluorescence (NF200) images. […] For quantification of axon length, neurons were immunostained using an antibody against β-tubulin. […] (N) Quantification of TUNEL-positive neurons (M) using ImageJ software (n = 5 for each condition; ***p < 0.001 by one-way ANOVA with Dunnett's test; mean ± SEM). […]

[2] = test system: ERK1/2 (phosphorylated) in DRG explants; experiment: Western blot of phosphorylated ERK1/2 in DRG explants; format: cell-based, rat; conditions: CH02 20 μM + BGJ398 2 μM, 4 h, n = 3
Source text: as §1

[3] = test system: primary DRG neurons; experiment: TUNEL assay of DRG neuron apoptosis induced by H2O2; format: cell-based, Sprague-Dawley rat; conditions: CH02 + inhibitor 24 h, then H2O2 12 h, n = 5
Method: Figure 3 Effect of the CH02 peptide on axon growth and neuron survival. (A) Representative images of the CH02 peptide effect on axon growth in adult primary DRG neurons. DRG neurons were obtained from adult Sprague-Dawley rats. After 12-h of culture, neurons were stimulated with CH02 or bFGF for 48 h. Axonal outgrowth was assessed by immunocytochemistry using an antibody against β-tubulin, an axonal marker. Images were acquired from random neurons by fluorescence microscopy. Scale bars = 50 μm. (B) Quantification of the longest axon length of each neuron randomly selected in three independent experiments from (A), using Image-Pro Plus 6.0 software (n = 48 for each condition; *p < 0.05, ****p < 0.0001 by one-way ANOVA with Dunnett's test; ns, not significant; mean ± SD). […] The axon is shown in fluorescence (β3-tubulin) images. […] (D) Quantification of axon growth of DRG explants from (C) using the Neurite-J software (n=4 for each condition; *control vs. CH02; #control vs. bFGF; *p < 0.05, **p < 0.01, ***p < 0.001, #p < 0.05, ##p < 0.01 by two-way ANOVA with Dunnett's test; ns, not significant; mean ± SEM). […] LDH released from damaged cell membranes was detected by an LDH assay kit. The results are expressed as the mean ± SEM (**p < 0.01 by one-way ANOVA with Dunnett's test; ns, not significant, compared with the control group). […] Apoptotic neurons were detected by a TUNEL apoptosis assay kit. […]

SMILES	effect of inhibitor on CH02-upregulated phosphorylated AKT [1]	effect of inhibitor on CH02-upregulated phosphorylated ERK [2]	effect of inhibitor on protective effect of CH02 against H2O2-induced apoptosis [3]
CCN1CCN(c2ccc(Nc3cc(N(C)C(=O)Nc4c(Cl)c(OC)cc(OC)c4Cl)ncn3)cc2)CC1 [BGJ398]	counteracted CH02 effect on upregulating phosphorylated AKT and ERK levels	counteracted CH02 effect on upregulating phosphorylated AKT and ERK levels	
N#CC(=C(/N)Sc1ccccc1N)/C(C#N)=C(/N)Sc1ccccc1N [U0126]			significantly reduced the protective effect of CH02 on neurons from apoptosis induced by H2O2

From paper PMC8581430, “Peptide ligands targeting FGF receptors promote recovery from dorsal root crush injury via AKT/mTOR signaling” (Theranostics, 2021)
